Experimental data taken from PubChem BioAssay AID1259340 (Broad Institute, 2017).
The source made the active and inactive calls.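 The calls were made as follows: active = AC50 no more than ten times the top concentration tested; inconclusive = flat fit with inhibition between 30% and 70%, or unusable fit; inactive = AC50 beyond ten times the top concentration.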

Target: Caspase recruitment domain-containing protein 9 (Homo sapiens) + B-cell lymphoma/leukemia 10 (Homo sapiens) (UniProt Q9H257+O95999)
Sequence (O95999 whole entry, looked up, the tested form may be a part): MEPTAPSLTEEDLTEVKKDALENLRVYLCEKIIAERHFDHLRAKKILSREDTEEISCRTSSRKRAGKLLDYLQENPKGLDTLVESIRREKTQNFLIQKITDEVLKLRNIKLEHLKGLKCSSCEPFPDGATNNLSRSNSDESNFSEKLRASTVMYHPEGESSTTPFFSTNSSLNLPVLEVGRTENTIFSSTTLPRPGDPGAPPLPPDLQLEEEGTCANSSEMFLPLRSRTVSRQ
Sequence (Q9H257 whole entry, looked up, the tested form may be a part): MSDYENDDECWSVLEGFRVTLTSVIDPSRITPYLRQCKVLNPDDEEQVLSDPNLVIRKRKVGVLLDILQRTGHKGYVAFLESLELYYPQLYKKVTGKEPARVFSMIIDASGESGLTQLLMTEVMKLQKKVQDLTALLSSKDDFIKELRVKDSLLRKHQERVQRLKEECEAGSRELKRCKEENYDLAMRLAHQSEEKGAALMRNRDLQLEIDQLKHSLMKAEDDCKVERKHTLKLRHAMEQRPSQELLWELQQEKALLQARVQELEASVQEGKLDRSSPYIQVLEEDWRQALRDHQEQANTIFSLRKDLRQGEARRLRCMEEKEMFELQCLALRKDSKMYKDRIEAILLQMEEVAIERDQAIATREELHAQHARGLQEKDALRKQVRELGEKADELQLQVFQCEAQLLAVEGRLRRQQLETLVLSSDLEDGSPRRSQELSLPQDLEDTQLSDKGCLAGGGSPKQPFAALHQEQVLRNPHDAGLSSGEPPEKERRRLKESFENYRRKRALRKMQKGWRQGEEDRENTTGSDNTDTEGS
Assay: disruptors of CARD9-BCL10 binding, dose response, selectivity assay for CARD9-TRIM62 disruptor project, cell lysate, HEK293FT lysates, Luminex bead ELISA (AID 1259340)
Conditions: for activity change, negative = inhibition: at 80 µM (top of the series)

| SMILES | AC50 | activity change, negative = inhibition |
| --- | --- | --- |
| C=CC(=O)N1CCCC2(CCN(CCN3CCCC3)C2=O)C1 (stereo unspecified) | 22.7 µM |  |
| O=C(NC1CC1)c1cc(-c2ccco2)nc2ccccc12 | > 160 µM (inactive) |  |
| CCN1CCN(C(=O)c2cc(-c3ccco3)nc3ccccc23)CC1 | > 160 µM (inactive) |  |
| O=C(Nc1nc(-c2nc3ccccc3s2)cs1)c1ccco1 |  | inactive |
| O=C1CS/C(=N\N=C\c2ccco2)N1c1ccccc1 | > 160 µM (inactive) |  |
| O=[N+]([O-])c1ccc2nn(Cc3ccccc3)cc2c1 |  | inactive |
| O=c1/c(=C/c2ccco2)sc2nc3ccccc3n12 |  | inactive |
| NC(=O)C1(N2CCCCC2)CCN(c2ncc(NC(=O)c3ccccc3)cc2C(=O)O)CC1 |  | inactive |
| Cc1ccc(S(=O)(=O)Cc2ccc(C(=O)N3CCC4(CC3)OCCO4)o2)cc1 |  | inactive |
| C(=C\c1ccco1)/c1nc2ccccc2[nH]1 | 58.6 µM |  |
| COc1ccc(S(=O)(=O)c2ccccc2)cc1NS(=O)(=O)c1cccc(C(=O)O)c1 |  | inactive |
| O=C(Nc1nc(-c2ccco2)c(-c2ccco2)s1)C1CCC1 | > 160 µM (inactive) |  |
| CC1CCN(c2nc(-c3ccco3)c3c(c2C#N)CC(C)(C)OC3)CC1 |  | inactive |
| O=C(Nc1nccs1)c1cc(-c2ccccn2)nc2c(Cl)cccc12 | 41.1 µM |  |
| Cc1ccc(Nc2nc(C(=O)Nc3ccc(Cl)cc3)nc3ccccc23)cc1 | > 160 µM (inactive) |  |
| COc1cccc(NC(=O)CN(C)C(=O)c2cc3c(s2)CCC3)c1 | > 160 µM (inactive) |  |
| O=C(NCc1ccco1)c1c2c(nc3ccccc13)CCC2 | > 160 µM (inactive) |  |
| O=C(O)COc1ccc(-n2cccc2)cc1 |  | inactive |
| Cc1ccc2cc(CN(Cc3ccco3)S(C)(=O)=O)c(=O)[nH]c2c1 | > 160 µM (inactive) |  |
| OCc1ccc(O)c2ncccc12 |  | inactive |
| NC(=O)C1(N2CCCCC2)CCN(c2ccc(NC(=O)c3ccccc3F)cc2C(=O)O)CC1 |  | inactive |
| Cc1nc(C)c(C(=O)Nc2ncc([N+](=O)[O-])s2)o1 | 66 µM |  |
| CCc1nc(OCc2ccco2)c2sc3nc4c(cc3c2n1)COC(C)(C)C4 |  | inactive |
| CCc1nccn1CCC(=O)N1C[C@H](CO)C[C@H](CN2CCCC2)C1 |  | inactive |

| SMILES | AC50 | activity change, negative = inhibition |
| --- | --- | --- |
| Cc1c(C(=O)OCC2CCCO2)[nH]c2c1C(=O)CC(c1ccco1)C2 (stereo unspecified) |  | inactive |
| CC(=O)c1ccc(NC(=O)c2noc3c2CCC3)cc1 |  | inactive |
| CCCc1oc(C(=O)O)cc1CN |  | inactive |
| O=C(Cn1c(=O)cc(C(=O)N2CCc3ccccc3C2)c2ccccc21)NCc1ccc2c(c1)OCO2 |  | inactive |
| O=S(=O)(c1ccc2nc(-c3ccco3)c(-c3ccco3)nc2c1)N1CCOCC1 | 20.3 µM |  |
| O=C(Nc1nnc(-c2ccco2)s1)c1ccccc1 |  | inactive |
| O=C(CN1CCOC1=O)N1CCC2(CCC(=O)N(CCCn3ccnc3)C2)CC1 |  | inactive |
| Cc1ccc(-c2nn(-c3ccccc3)cc2CN(Cc2ccccc2)C(=O)CCC(=O)O)o1 |  | inactive |
| O=C(NCCc1ccccc1)c1cc2cccnc2n(Cc2ccccc2)c1=O |  | inactive |
| O=S(=O)(Nc1nc2ccc(S(=O)(=O)N3CCCCC3)cc2s1)c1ccccc1 |  | inactive |
| Cc1cncc(-c2ccc(S(N)(=O)=O)cc2F)c1 |  | inactive |
| CC(=O)c1cccc(OCC(=O)N(C)CC(=O)NCc2ccco2)c1 | > 160 µM (inactive) |  |
| O=C(NCC1CCCO1)c1cc(-c2ccco2)nc2ccccc12 (stereo unspecified) | > 160 µM (inactive) |  |
| COc1ccc(-c2ccc(CCC(=O)O)o2)cc1 |  | inactive |
| Cc1ccc(C(=O)Nc2ccc(N3CCC(C(N)=O)(N4CCCCC4)CC3)c(C(=O)O)c2)cc1 |  | inactive |
| CCn1ccnc1C1CCN(C(=O)CCn2c(C)nc3ccccc32)CC1 |  | inactive |
| NC(=O)C1(N2CCCCC2)CCN(c2ncc(NC(=O)c3ccc(Cl)cc3)cc2C(=O)O)CC1 |  | inactive |
| COCC(=O)N1CCCC2(CCN(CCN3CCCC3)C2=O)C1 (stereo unspecified) |  | inactive |
| O=C(O)C1Oc2cc3ccccc3cc2O1 | > 160 µM (inactive) |  |
| O=C(NCCc1ccco1)c1ccc(OCc2cn3ccccc3n2)cc1 |  | inactive |
| Cc1ccc(-c2nnc(-c3nc(Nc4nc5ccccc5s4)c4ccccc4n3)o2)cc1 | 64 µM |  |
| c1cn(CCc2noc(C3CCCC3)n2)c(-c2cc3n(n2)CCCNC3)n1 |  | inactive |
| CCCc1cc(C(=O)N2CC[C@H]3CNC[C@H]32)n(C)n1 |  | inactive |
| O=C(COC(=O)c1ccc(S(=O)(=O)NCc2ccco2)cc1)Nc1ccc(Cl)cn1 |  | inactive |

| SMILES | AC50 | activity change, negative = inhibition |
| --- | --- | --- |
| O=C(Nc1nc(-c2ccco2)c(-c2ccco2)s1)c1ccco1 |  | inactive |
| CC(=O)c1sc2nc(-c3ccco3)ccc2c1N | 26.1 µM |  |
| Cc1cccc(Nc2nc(C(=O)Nc3cc(F)ccc3F)nc3ccccc23)c1 |  | inactive |
| CCOC(=O)C1CCN(C(=O)CN(Cc2ccccc2)S(C)(=O)=O)CC1 |  | inactive |
| COCCC(=O)N1CCCC2(CCN(CCN3CCCC3)C2=O)C1 (stereo unspecified) |  | inactive |
| O=C1CC2(CCN(C(=O)Nc3ccccc3)CC2)CN1Cc1ccc(Cl)cc1 | 79.7 µM |  |
| COc1ccc(-n2c(C)c3c(OC)cccc(=O)c3c2C)cc1 | > 160 µM (inactive) |  |
| CC(C(=O)N1CCCC1)N1CCN(c2ccccc2O)CC1 (stereo unspecified) |  | inactive |
| O=C(O)c1ccc2nc(-c3ccco3)c(-c3ccco3)nc2c1 | 19.6 µM |  |
| CCCN1CCCn2nc(CNC(=O)[C@@H](N)Cc3ccc(O)cc3)cc2C1 |  | inactive |
| c1coc(-c2cn3ccc4ccccc4c3n2)c1 |  | inactive |
| COc1ccc2nc(-c3ccco3)c(-c3ccco3)nc2c1 | 39.2 µM |  |
| COc1ccc(-c2nnc(-c3nc(Nc4ccc(NC(C)=O)cc4)c4ccccc4n3)o2)cc1 | 64.5 µM |  |
| CCN1CCOC(=O)C1CC(=O)Nc1cccc(C)c1 (stereo unspecified) |  | inactive |
| CN(C)c1ccc(CN2C[C@H]3CC[C@@H]2CN(C(=O)c2ccncc2)C3)cn1 | > 160 µM (inactive) |  |
| Cc1ccc(C(=O)Nc2cnc(N3CCC(C(N)=O)(N4CCCCC4)CC3)c(C(=O)O)c2)cc1 |  | inactive |
| CC1(C)Cc2ccccc2-c2nc(-c3ccccc3)oc(=O)c21 |  | inactive |
| O=[N+]([O-])c1cccc(-c2nnc3ccc4ccccc4n23)c1 | > 160 µM (inactive) |  |
| O=C(Nc1nncs1)c1cc(-c2ccco2)nc2ccccc12 | 68.5 µM |  |
| O=S(=O)(Nc1nccs1)c1ccc(-n2cccc2)cc1 |  | inactive |
| C=CCNc1ncnc2c1CCN(C(=O)c1ccc(CSC)o1)CC2 | > 160 µM (inactive) |  |
| C[C@H](CO)N1C[C@H](C)[C@@H](CN(C)CC2CCCCC2)OCCCC[C@H](C)Oc2ccc(NS(C)(=O)=O)cc2C1=O |  | inactive |
| CCOc1ccccc1NC(=O)N1CCCC(c2nccn2CCOC)C1 (stereo unspecified) | > 160 µM (inactive) |  |
